# Source: patent US8426408B2, “Pyrimidine inhibitors of kinases” (AbbVie Inc., priority 2009, dated 2013)
# Experiments:
# [1] = tested on: NCI-H1299 cells; assay: Induction of polyploidy in H1299; type: cell-based, Human; settings: Homo sapiens; NCI-H1299, 48 hours; read-out: EC15 (concentration of inhibitor necessary to induce polyploidy in 15% of cells)
# In short: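 Potency is given as EC15, the inhibitor concentration giving 15% polyploid cells, from log dose-response least-squares analysis. Polyploid cells (nuclear area >750 μ^2, ≥4N) were counted by Hoechst high-content microscopy. H1299 cells had been exposed for 48 h at 37 C in duplicate, then fixed in 3% formalin.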
# [2] = biological target: T1, KDR (Homo sapiens, UniProt P35968); assay: KDR HTRF in vitro kinase assay; type: biochemical; design: purified enzyme (His6-KDR 789-1354, MW 63 kD); His6 (N); settings: 1 mM ATP; read-out: KDR enzyme inhibition data (Ki)
# In short: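 His6-KDR 789-1354 (7 ng/well) with 0.5 μM biotinylated peptide substrate and 1 mM ATP in HEPES pH 7.1, MgCl2/MnCl2, 60 min at room temperature. EDTA-quenched, detected by streptavidin-XL-665 plus Eu-kryptate anti-phosphotyrosine HTRF after 3 h; IC50 from 620/665 nm ratio.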
# Target sequence in this assay (P35968 789-1354): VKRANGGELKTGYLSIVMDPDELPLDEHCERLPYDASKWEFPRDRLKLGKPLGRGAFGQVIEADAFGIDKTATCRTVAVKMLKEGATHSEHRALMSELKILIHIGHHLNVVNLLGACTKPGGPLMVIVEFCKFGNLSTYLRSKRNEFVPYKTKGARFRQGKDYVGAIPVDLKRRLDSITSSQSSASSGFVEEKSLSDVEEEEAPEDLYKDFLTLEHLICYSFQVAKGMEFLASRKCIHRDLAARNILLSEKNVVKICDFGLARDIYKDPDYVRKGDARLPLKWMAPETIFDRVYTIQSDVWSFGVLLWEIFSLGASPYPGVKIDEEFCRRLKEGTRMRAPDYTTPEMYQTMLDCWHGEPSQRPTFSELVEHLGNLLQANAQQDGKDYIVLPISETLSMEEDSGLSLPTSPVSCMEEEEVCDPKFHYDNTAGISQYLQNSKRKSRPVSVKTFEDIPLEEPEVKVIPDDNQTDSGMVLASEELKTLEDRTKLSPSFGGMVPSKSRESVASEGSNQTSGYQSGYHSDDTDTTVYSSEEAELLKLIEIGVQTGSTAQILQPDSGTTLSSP
# [3] = biological target: T1, KDR; assay: KDR cellular assay (KDR receptor phosphorylation ELISA); type: cell-based; design: expressed in transfected cells; host or cells: 3T3 (embryonic mouse) cells; settings: KDR transfected 3T3 (embryonic mouse) cells, VEGF stimulated; read-out: IC50 inhibition of KDR phosphorylation
# In short: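 Phospho-KDR measured by capture ELISA (anti-KDR coat, biotinylated detection, streptavidin-HRP, 450 nm) in lysates of KDR-expressing 3T3 mouse fibroblasts. Cells saw compound 20 min at 37° C before 10 min VEGF challenge (100 ng/ml solution); IC50 from non-linear regression of half-log dose series.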
# Target sequence in this assay (P35968 20-1356): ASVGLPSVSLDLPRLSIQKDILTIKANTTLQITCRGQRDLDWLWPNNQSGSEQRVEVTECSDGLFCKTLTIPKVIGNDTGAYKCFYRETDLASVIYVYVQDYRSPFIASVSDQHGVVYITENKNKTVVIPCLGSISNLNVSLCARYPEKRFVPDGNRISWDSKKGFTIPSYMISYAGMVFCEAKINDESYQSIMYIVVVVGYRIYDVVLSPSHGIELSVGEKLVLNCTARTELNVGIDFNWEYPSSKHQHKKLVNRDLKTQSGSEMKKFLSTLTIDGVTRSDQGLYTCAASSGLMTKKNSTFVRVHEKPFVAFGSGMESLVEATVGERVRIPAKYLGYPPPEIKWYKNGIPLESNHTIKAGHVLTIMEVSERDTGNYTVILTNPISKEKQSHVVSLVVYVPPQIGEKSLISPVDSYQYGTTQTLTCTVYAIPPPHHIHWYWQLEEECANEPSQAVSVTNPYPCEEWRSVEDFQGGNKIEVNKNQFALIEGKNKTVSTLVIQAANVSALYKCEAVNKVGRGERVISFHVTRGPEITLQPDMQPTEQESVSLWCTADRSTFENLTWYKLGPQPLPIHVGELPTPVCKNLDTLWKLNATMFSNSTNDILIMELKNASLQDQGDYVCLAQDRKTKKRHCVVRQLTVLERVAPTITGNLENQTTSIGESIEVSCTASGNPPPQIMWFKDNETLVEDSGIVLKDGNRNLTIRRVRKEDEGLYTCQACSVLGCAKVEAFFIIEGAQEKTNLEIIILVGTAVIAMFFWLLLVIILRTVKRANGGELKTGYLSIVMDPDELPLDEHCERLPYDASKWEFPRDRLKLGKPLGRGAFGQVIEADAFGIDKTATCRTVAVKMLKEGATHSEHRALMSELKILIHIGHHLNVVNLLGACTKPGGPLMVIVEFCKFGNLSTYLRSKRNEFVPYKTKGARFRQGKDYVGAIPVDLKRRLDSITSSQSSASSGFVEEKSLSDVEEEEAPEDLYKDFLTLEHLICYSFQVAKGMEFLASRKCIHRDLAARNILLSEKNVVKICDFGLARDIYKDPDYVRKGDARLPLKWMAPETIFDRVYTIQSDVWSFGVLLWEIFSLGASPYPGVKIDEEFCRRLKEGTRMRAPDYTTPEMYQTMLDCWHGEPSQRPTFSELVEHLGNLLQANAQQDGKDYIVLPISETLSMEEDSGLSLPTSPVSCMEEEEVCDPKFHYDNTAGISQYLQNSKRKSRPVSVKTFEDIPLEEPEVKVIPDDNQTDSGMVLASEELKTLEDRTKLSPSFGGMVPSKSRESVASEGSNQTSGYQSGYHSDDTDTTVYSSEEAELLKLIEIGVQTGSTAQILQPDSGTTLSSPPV
Structure (SMILES),EC15 [1],Ki [2],IC50 [3]
"CN1CCN(CCn2cc(Nc3ncc(Br)c(N[C@H]4[C@@H](C(N)=O)[C@@H]5C=C[C@H]4C5)n3)cn2)CC1 [Example 94, (1S,2S,3R,4R)-3-{[5-bromo-2-({1-[2-(4-methylpiperazin-1-yl)ethyl]-1H-pyrazol-4-yl}amino)pyrimidin-4-yl]amino}bicyclo[2.2.1]hept-5-ene-2-carboxamide]",< 100 nM,< 100 nM,< 100 nM
"COCCn1cc(Nc2ncc(Cl)c(N[C@H]3[C@@H](C(N)=O)[C@@H]4C=C[C@H]3C4)n2)cn1 [Example 96, (1S,2S,3R,4R)-3-[(5-chloro-2-{[1-(2-methoxyethyl)-1H-pyrazol-4-yl]amino}pyrimidin-4-yl)amino]bicyclo[2.2.1]hept-5-ene-2-carboxamide]",100 to 1000 nM,< 100 nM,< 100 nM
"NC(=O)[C@@H]1[C@H](Nc2nc(Nc3cnn(C4CCNCC4)c3)ncc2Br)[C@H]2C=C[C@@H]1C2 [Example 95, (1S,2S,3R,4R)-3-[(5-bromo-2-{[1-(piperidin-4-yl)-1H-pyrazol-4-yl]amino}pyrimidin-4-yl)amino]bicyclo[2.2.1]hept-5-ene-2-carboxamide]",100 to 1000 nM,< 100 nM,< 100 nM
